We go through eleven compounds from US7060836B2, “Lactams as tachykinin antagonists” (Pfizer, Inc, priority 2001, dated 2006).

One data set has as its target T1, human NK2 receptor (Homo sapiens, UniProt P21452).
T1 construct: expressed in transfected cells; host or cells: Chinese hamster ovary (CHO) cells, membranes
T1 sequence (P21452 1-398): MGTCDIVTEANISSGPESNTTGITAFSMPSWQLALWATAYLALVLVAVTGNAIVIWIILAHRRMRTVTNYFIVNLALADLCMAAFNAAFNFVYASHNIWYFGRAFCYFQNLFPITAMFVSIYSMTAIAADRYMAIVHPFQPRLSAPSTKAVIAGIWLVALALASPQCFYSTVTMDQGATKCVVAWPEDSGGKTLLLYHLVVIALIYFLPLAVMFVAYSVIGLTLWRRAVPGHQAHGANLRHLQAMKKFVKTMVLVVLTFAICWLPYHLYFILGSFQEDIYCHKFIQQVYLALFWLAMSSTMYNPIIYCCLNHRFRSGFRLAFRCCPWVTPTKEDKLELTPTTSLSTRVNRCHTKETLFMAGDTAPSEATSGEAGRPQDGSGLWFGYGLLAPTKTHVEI
As to the kind of experiment: Competition with [3H] or [125I] NKA for binding to membranes of CHO cells expressing the cloned human NK2 receptor. The note with it: membranes from CHO cells expressing cloned human NK2 receptor, 90 min, 25° C. How it is done:
The affinity of the compounds of formula (I), and their salts, for the human NK2 receptor can be assessed in vitro by testing their ability to compete with [^3H] or [^125I] NKA (neurokinin A) for binding to membranes prepared from Chinese hamster ovary cells expressing the cloned human NK2 receptor using a modification of the method described in McLean, S. et al., J. Pharm. Exp. Ther., 267, 472–9 (1993). The membranes are incubated (90 min, 25° C.) with [^3H] or [^125I] NKA and a range of concentrations of the test compound. Non specific binding was determined in the presence of 1 μM SR-48968 (N-[(2S)-4-[4-(acetylamino)-4-phenyl-1-piperidinyl]-2-(3,4-dichlorophenyl)butyl]-N-methyl benzamide).
`CC(=O)NC1(c2ccccc2)CCN(CC[C@]2(c3ccc(Cl)c(Cl)c3)CCC(=O)N(c3ccccn3)C2)CC1` [Example 90, N-(1-{2-[(3S)-3-(3,4-Dichlorophenyl)-6-oxo-1-(2-pyridinyl)piperidinyl]ethyl}-4-phenyl-4-piperidinyl)-acetamide] returned a Ki of 2.4 nM.
In turn, `Cc1cccc(N2C[C@@](CCN3CC(N4CCOCC4)C3)(c3ccc(Cl)c(Cl)c3)CCC2=O)n1` [Example 131, (5S)-5-(3,4-Dichlorophenyl)-1-(6-methyl-2-pyridinyl)-5-{2-[3-(4-morpholinyl)-1-azetidinyl]ethyl}-2-piperidinone] registered a Ki of 3.8 nM.
Take `O=C1CC[C@](CCN2CCC(O)(c3ccccn3)CC2)(c2ccc(Cl)c(Cl)c2)CN1c1ccccn1` [Example 92, (5S)-5-(3,4-Dichlorophenyl)-5-{2-[4-hydroxy-4-(2-pyridyl)-1-piperidinyl]ethyl}-1-(2-pyridinyl)-2-piperidinone]: the Ki came out at 7 nM.
On the same count and under the same terms, to `Cc1cccc(N2C[C@@](CCN3CCC(O)(c4ccccc4)CC3)(c3ccc(Cl)c(Cl)c3)CCC2=O)n1` [Example 134, (5S)-5-(3,4-Dichlorophenyl)-1-(6-methyl-2-pyridinyl)-5-{{2-[4-hydroxy-4-phenyl]-1-piperidinyl}ethyl}-2-piperidinone] belongs 1.9 nM.
With `COC1CCN(CC[C@]2(c3ccc(Cl)c(Cl)c3)CCC(=O)N(c3ccccn3)C2)CC1` [Example 61, (5S)-5-(3,4-Dichlorophenyl)-5-[2-(4-methoxy-1-piperidinyl)ethyl]-1-(2-pyridinyl)-2-piperidinone], the Ki turned out to be 12 nM.
The same measure, in the same setting: for `Cc1cccc(N2C[C@@](CCN3CC(N4CCC(O)CC4)C3)(c3ccc(Cl)c(Cl)c3)CCC2=O)n1` [Example 135a, (5S)-5-(3,4-Dichlorophenyl)-1-(6-methyl-2-pyridinyl)-5-{2-[3-(4-hydroxypiperidinyl)-1-azetidinyl]ethyl}-2-piperidinone] the value was 3.7 nM.
Still for that read-out and setting: for `Cc1cccc(N2CC(CCN3CC(N4CCC(=O)CC4)C3)(c3ccc(Cl)c(Cl)c3)CCC2=O)n1` (centres unmarked) [Example 168, 5-(3,4-Dichlorophenyl)-1-(6-methyl-2-pyridinyl)-5-{2-[3-(4-oxo-1-piperidinyl)-1-azetidinyl]ethyl}-2-piperidinone] the value was 2.6 nM; for `CC(=O)N(C)C1CCN(CC[C@]2(c3ccc(Cl)c(Cl)c3)CCC(=O)N(c3ccccn3)C2)CC1` [Example 158, N-(1-{2-[(3S)-3-(3,4-Dichlorophenyl)-6-oxo-1-(2-pyridinyl)piperidinyl]ethyl}-4-piperidinyl)-N-methylacetamide], 8 nM; for `COc1cccc(N2C[C@@](CCN3CC(N4CCOCC4)C3)(c3ccc(Cl)c(Cl)c3)CCC2=O)n1` [Example 119, (5S)-5-(3,4-Dichlorophenyl)-1-(6-methoxy-2-pyridinyl)-5-{2-[3-(4-morpholinyl)-1-azetidinyl]ethyl}-2-piperidinone], 5.4 nM.
Still for that read-out and setting: for `O=C1CC[C@](CCN2CC(N3CCC(O)CC3)C2)(c2ccc(Cl)c(Cl)c2)CN1c1ccccn1` [Example 73, (5S)-5-(3,4-Dichlorophenyl)-5-{2-[3-(4-hydroxy-1-piperidinyl)-1-azetidinyl]ethyl}-1-(2-pyridinyl)-2-piperidinone] the value was 2.2 nM.

Tested on in another data set: not given
Experiment: not given
Conditions: not given
Compound `Cc1cccc(N2C[C@@](CCN3CC(N4CCC(O)CC4)C3)(c3ccc(Cl)c(Cl)c3)CCC2=O)n1.O=C(O)/C=C/C(=O)O` displayed a melting point of 175.5 to 177 °C.

What is called Ki is the equilibrium dissociation constant of an inhibitor or competing ligand from its target. The low end stands for tighter binding, the high end for weaker binding. The melting point is the temperature of the solid-liquid transition.
